# Laboratory results as given in patent US20040198756A1, “Medicaments” (priority 2001, published 2004).
# Structures can show the parent of a compound that is named as a salt.
# System: S. aureus WCUH29, S. pneumoniae 1629, H. influenzae ATCC 51907, M. catarrhalis Ravisio
# Assay: MIC of further test compounds against an alternative selection of organisms
# Assay type: cell-based
# Conditions: read-out: MIC values versus some of these organisms
# Description: The MIC (μg/ml) of further test compounds against an alternative selection of organisms was determined:
# S. aureus WCUH29, S. pneumoniae 1629, H. influenzae ATCC 51907, M. catarrhalis Ravisio.
smiles,measurement,value
"COc1ccc2nccc(NC(=O)C3(C(F)(F)F)CCN(CCc4cc5c(nn4)SCC(=O)N5)CC3)c2n1 [Example 24, 1-[2-(6-Oxo-6,7-dihydro-5H-8-thia-1,2,5-triazanaphthalen-3-yl)ethyl]-4-trifluoromethylpiperidine-4-carboxylic acid (6-methoxy-[1,5]naphthyridin-4-yl) amide dihydrochloride]",MIC,≤ 16 µg/mL
